The target of this experiment is T1, Cytochrome P450 1B1 (Homo sapiens, UniProt Q16678).
T1 sequence (Q16678 whole entry): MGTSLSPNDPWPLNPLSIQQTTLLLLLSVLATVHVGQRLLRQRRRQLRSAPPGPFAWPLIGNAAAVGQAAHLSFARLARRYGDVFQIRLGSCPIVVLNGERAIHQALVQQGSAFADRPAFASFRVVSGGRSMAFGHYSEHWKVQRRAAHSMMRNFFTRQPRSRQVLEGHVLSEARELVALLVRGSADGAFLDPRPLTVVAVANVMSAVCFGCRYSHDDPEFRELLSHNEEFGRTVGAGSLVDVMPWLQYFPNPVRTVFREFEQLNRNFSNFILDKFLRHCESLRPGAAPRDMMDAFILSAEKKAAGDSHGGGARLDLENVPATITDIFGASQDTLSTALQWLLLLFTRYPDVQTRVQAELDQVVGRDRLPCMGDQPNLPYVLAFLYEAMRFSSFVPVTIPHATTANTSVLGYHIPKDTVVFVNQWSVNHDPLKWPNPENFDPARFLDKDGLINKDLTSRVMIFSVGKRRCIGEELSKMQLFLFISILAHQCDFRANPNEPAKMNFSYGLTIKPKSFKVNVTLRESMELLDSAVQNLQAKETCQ
The experiment can be described thus: EROD Assay. Particulars: pH 8; 37 °C. From the text:
The ethoxyresorufin-O-deethylase (EROD) assay is used to test the activity of CYP1B1.
A word on the Ki: it is the equilibrium dissociation constant of an inhibitor or competing ligand from its target. A higher Ki goes with weaker binding. Turning to `Oc1ccc(/C=C/c2cc(O)cc(O)c2)cc1` [5-[(E)-2-(4-hydroxyphenyl)ethenyl]benzene-1,3-diol], affinity was put at a Ki of 177 nM. This counts as sub-micromolar.

In turn, `Oc1cc(O)cc(/C=C/c2ccsc2)c1` [Stilbene, 16f] gave an inhibitory constant (Ki) of 1180 nM. Against the preceding compound, the Ki is about 6.7-fold higher.

Regarding `Oc1cc(O)cc(/C=C/c2ccc(F)cc2)c1` [Stilbene, 8f], affinity was put at a Ki of 323 nM.

`Oc1cc(O)cc(/C=C/c2ccoc2)c1` [Stilbene, 15f]: the Ki was 1110 nM.

`Oc1cc(O)cc(/C=C/c2ccccc2)c1` [(E)-5-(2-phenylethenyl)-1,3-benzenediol] came in with a Ki of 74.3 nM.

These data come from BindingDB's records for doi:10.1016/j.chembiol.2007.05.004 (University of Tokyo, 2007).
